Data on ten compounds can be found in PubChem BioAssay (NCI).

Each structure is given as a SMILES string.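 Five concentrations, 48 hours, 96-well plates. GI50 is the concentration that inhibits growth by half. At the TGI there is no net growth.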

Some test systems named below: CAKI-1 renal; DU-145 prostate; HCC-2998 colon; HOP-62 NSCLC; HS 578T breast; M14 melanoma; NCI-H460 lung; SF-539 CNS; SK-MEL-2 melanoma; RXF 393 renal.
What all share (assay): NCI-60 cell line screen, 48 h

Take `CCCCCCn1c(=N)n(CC(O)COc2cccc(C)c2)c2ccccc21` (stereo not drawn): the GI50 in the experiment with CAKI-1 renal is 2.89 µM; with DU-145 prostate, 3.67 µM; in the experiment on HCC-2998 colon, 2.04 µM; in the experiment with HOP-62 NSCLC, 2.14 µM; with HS 578T breast, 2.63 µM; with M14 melanoma, 1.83 µM. The GI50 in the experiment on NCI-H460 lung was 1.96 µM; in the experiment on SF-539 CNS, 2.2 µM; in the experiment on SK-MEL-2 melanoma it was 1.91 µM. The TGI in the experiment on CAKI-1 renal is 10.6 µM; in the experiment on DU-145 prostate it was 12.1 µM; in the experiment on HCC-2998 colon, 3.65 µM; with HOP-62 NSCLC it was 3.88 µM; with HS 578T breast it was 8.27 µM; with M14 melanoma, 3.42 µM. In addition, the TGI was determined as 3.88 µM with NCI-H460 lung, 4.43 µM in the experiment with SF-539 CNS and 4.26 µM in the experiment with SK-MEL-2 melanoma.
Turning to `COC(=O)[C@@H](C)C[C@H](Cc1ccccc1)NC(=O)c1cccc([C@@H](C[C@H](C(C)C)N(C)C(=O)[C@@H](NC(=O)[C@H]2CCCCN2C)C(C)C)OC(C)=O)n1`, the GI50 in the experiment with CAKI-1 renal was 0.00173 µM; with DU-145 prostate, < 0.00167 µM; in the experiment on HCC-2998 colon, < 0.00167 µM; with HOP-62 NSCLC, 0.00367 µM; in the experiment with HS 578T breast, 0.00342 µM; with M14 melanoma it was < 0.00167 µM. In addition, the values for the GI50 in the experiment on NCI-H460 lung, in the experiment with RXF 393 renal and in the experiment with SF-539 CNS were < 0.00167 µM, < 0.00167 µM and 0.00275 µM, respectively. The TGI with CAKI-1 renal is > 16.7 µM; in the experiment on HCC-2998 colon, > 7.55 µM; in the experiment on HOP-62 NSCLC, > 16.7 µM; in the experiment with HS 578T breast, > 11.8 µM; in the experiment on M14 melanoma, 0.224 µM; with NCI-H460 lung, > 16.7 µM. In addition, the TGI in the experiment with RXF 393 renal was > 16.7 µM; in the experiment on SF-539 CNS it was 0.00795 µM.
With `CCS(=O)(=O)Nc1ccc(Oc2ccc(F)cc2F)c(-c2cn(C)c(=O)c3[nH]ccc23)c1`, the GI50 in the experiment on DU-145 prostate is 2.88 µM; in the experiment with HCC-2998 colon, 0.0342 µM; with HOP-62 NSCLC, < 0.0245 µM; with HS 578T breast, < 0.0183 µM; in the experiment with M14 melanoma, < 0.0138 µM; in the experiment on NCI-H460 lung, 0.302 µM. The GI50 is 1.62 µM in the experiment with RXF 393 renal, 0.0135 µM with SF-539 CNS and 0.761 µM in the experiment with SK-MEL-2 melanoma. The TGI was determined as 31.4 µM with DU-145 prostate; 1.38 µM with HCC-2998 colon; 26.2 µM in the experiment with HOP-62 NSCLC; 36.5 µM in the experiment on HS 578T breast; 17 µM in the experiment with M14 melanoma; 19.3 µM in the experiment on NCI-H460 lung. Further, the TGI came to 14.1 µM in the experiment on RXF 393 renal, 16.1 µM with SF-539 CNS and 15.9 µM in the experiment with SK-MEL-2 melanoma.
With `O=C1/C(=C/c2ccc([N+](=O)[O-])s2)Oc2ccc(Cl)cc21`, the GI50 in the experiment on CAKI-1 renal was 2.05 µM; in the experiment with HCC-2998 colon it was 0.515 µM; with HOP-62 NSCLC it was 0.775 µM; with HS 578T breast, 0.372 µM; with M14 melanoma, 0.512 µM; in the experiment on NCI-H460 lung, 0.675 µM. Moreover, the values for the GI50 with RXF 393 renal, with SF-539 CNS and with SK-MEL-2 melanoma were 0.375 µM, 0.219 µM and 0.26 µM, respectively. The TGI with CAKI-1 renal was 6.68 µM; with HCC-2998 colon, 1.33 µM; in the experiment with HOP-62 NSCLC it was 3 µM; in the experiment with HS 578T breast, > 100 µM; in the experiment with M14 melanoma, 1.52 µM; in the experiment with NCI-H460 lung, 2.18 µM. In addition, the TGI amounted to 1.11 µM in the experiment with RXF 393 renal, 0.583 µM with SF-539 CNS and 0.624 µM with SK-MEL-2 melanoma.
For `Nc1cc2[nH]c(=O)c3cc(Cl)ccc3c2cc1Cl`, the TGI was 40.8 µM in the experiment on CAKI-1 renal; 39.1 µM in the experiment on DU-145 prostate; > 100 µM in the experiment with HCC-2998 colon; 63.1 µM in the experiment with HOP-62 NSCLC; > 100 µM in the experiment with HS 578T breast; > 100 µM in the experiment on M14 melanoma. Further, the TGI with NCI-H460 lung was 18.8 µM; in the experiment with SF-539 CNS, 25.8 µM; in the experiment with SK-MEL-2 melanoma, > 100 µM.
With `CCCC1C2=C(C(=O)OC2=O)C2C(CC)CC3=C(C(=O)OC3=O)C12` (stereo not drawn), the TGI in the experiment on CAKI-1 renal, in the experiment on DU-145 prostate, in the experiment on HOP-62 NSCLC, with HS 578T breast, in the experiment on M14 melanoma and with NCI-H460 lung was > 100 µM each time. Also, the TGI in the experiment on SF-539 CNS and with SK-MEL-2 melanoma was > 100 µM in each case.
On to `O=C(CN1C(=O)c2ccccc2C1=O)NC1(C(=O)O)CCCC1`, for which the TGI with CAKI-1 renal, with DU-145 prostate, with HCC-2998 colon, in the experiment on HOP-62 NSCLC, with HS 578T breast and in the experiment on M14 melanoma was > 100 µM in each case. For the same compound, the TGI in the experiment on RXF 393 renal and with SK-MEL-2 melanoma was > 100 µM throughout.
Regarding `N#Cc1c(-c2ccc(Cl)cc2)n([O-])c2ccccc2[n+]1=O`, the GI50 with DU-145 prostate was 18.1 µM; in the experiment on HCC-2998 colon, 13.3 µM; in the experiment on HOP-62 NSCLC it was 16.7 µM; in the experiment on HS 578T breast, 24.6 µM; with NCI-H460 lung, 18.5 µM; in the experiment with RXF 393 renal it was 11 µM. The GI50 in the experiment on SF-539 CNS was 17.9 µM; in the experiment with SK-MEL-2 melanoma, 37.3 µM. For the same compound, the TGI in the experiment with DU-145 prostate was 32.8 µM; in the experiment with HCC-2998 colon it was 26 µM; with HOP-62 NSCLC, 30.9 µM; with HS 578T breast, 53.8 µM; with NCI-H460 lung, 42.8 µM; with RXF 393 renal it was 33.2 µM. The TGI with SF-539 CNS was 36 µM; in the experiment on SK-MEL-2 melanoma, > 100 µM.
For the compound `Oc1ccc(-c2nc(-c3ccc4oc5ccc(-c6[nH]c(-c7ccc(O)cc7)nc6-c6ccccc6)cc5c4c3)c(-c3ccccc3)[nH]2)cc1`, the GI50 with CAKI-1 renal is 13.7 µM; with DU-145 prostate it was 4.83 µM; in the experiment on HCC-2998 colon, 3.12 µM; in the experiment on HOP-62 NSCLC it was 7.62 µM; in the experiment on HS 578T breast it was 3.55 µM; in the experiment on M14 melanoma it was 3.9 µM. Moreover, the GI50 is 3.01 µM in the experiment with NCI-H460 lung, 2.12 µM in the experiment with RXF 393 renal and 4.17 µM with SF-539 CNS. In addition, the TGI is 41.7 µM in the experiment with CAKI-1 renal; 20.6 µM in the experiment on DU-145 prostate; 9.69 µM with HCC-2998 colon; 42.3 µM in the experiment with HOP-62 NSCLC; 68.7 µM with HS 578T breast; > 100 µM in the experiment on M14 melanoma. Besides, the TGI in the experiment on NCI-H460 lung worked out at 9.85 µM; in the experiment with RXF 393 renal, 5.45 µM; with SF-539 CNS, 21.3 µM.
On to `COc1cc(OC)c(-c2oc3ccccc3c(=O)c2O)c(OC)c1`, for which the TGI is > 40.5 µM in the experiment on CAKI-1 renal; > 100 µM in the experiment with DU-145 prostate; > 31.5 µM in the experiment with HOP-62 NSCLC; 24.2 µM with HS 578T breast; > 100 µM in the experiment with M14 melanoma; > 100 µM with NCI-H460 lung. Also, the TGI in the experiment on RXF 393 renal was 37.7 µM; in the experiment on SF-539 CNS, > 100 µM.
